Assay results published in US10751423B2 (Massachusetts Institute of Technology, priority 2016, dated 2020).
Non-standard residues stand in square brackets, D forms with d. Residues, ends and D or L forms follow the SMILES beside them. *: point of attachment. Dolaproine = CO[C@@H]([C@@H]1CCCN1)[C@@H](C)C(=O)O; Dil = CC[C@H](C)[C@H](NC)[C@@H](CC(=O)O)OC; X1 = C[C@@H](N*)[C@@H](O)c1ccccc1; NMeV = CN[C@H](C(=O)O)C(C)C

Legend:
[1] = photostability under continuous laser irradiation; type: physicochemical
Text: FIG. 31D is a plot showing measurements of the photostability of various emissive components of core-shell nanoparticles under continuous irradiation. Note, the same excitation energies were utilized as in FIG. 31C; and, emission was detected using various excitation and emission filters. The photostability of DiR in THF (DiR in THF; black) was included for comparative purposes.
In addition to the emission of these extrinsic reporters, bioluminescence due to the luciferaseluciferin reaction and RFP fluorescence upon 535 nm excitation are also included in FIG. 31C, generating a spectral comparison of all reporters that were subsequently utilized for in vivo and ex vivo imaging (vide infra). Prior to embarking on comparisons of in vivo imaging with different reporters, we examined the photostability of each of the emissive components within the core-shell nanoparticles.

BCL-2 siRNA = assay: siRNA binding with various platinum species by MALDI-TOF-MS; conditions: 10-fold excess of platinum species
Description: A single-stranded siRNA (UCAGGUACUCAGUCAUCCACATT) (SEQ ID NO: 3) was mixed with OxaPt(II) at a molar ratio of 1:10 in RNAase free water (RNA final concentration: 50 μM; Pt final concentration: 500 μM; total volume: 100 μL). The reaction mixture was placed in a 37° C. incubator and 10 μL of sample were removed at various time points to obtain MALDI-TOF-MS spectra (positive model). Analogous methods were employed to obtain spectra of the reaction products of siRNA with OxaPt(IV), CisPt(II) and CisPt(IV).
MALDI/TOF MS was used to ascertain the kinetics of platinum-RNA adduct formation using BCL-2 siRNA that was incubated with a 10-fold excess of various platinum(II) or platinum(IV) species. […] AAS measurements of siRNA that had been isolated after co-incubation with various platinum species was conducted to determine the concentration of Pt-siRNA adducts formed over time.

[2] = read-out: in vitro IC50; cited from earlier work
5′-GMP = 5′-GMP binding with various platinum species by 1HNMR; conditions: 10 mM 5′-GMP, 5 mM Pt, 37° C.
Description: (10 mM) 5′-GMP and (5 mM) OxaPt(II) were mixed in 700 μL of D2O/H2O (v/v=1:9), transferred to an NMR tube and placed in a 37° C. water bath for various time periods prior to ^1HNMR measurement. […] The binding kinetics of 5′-GMP to each platinum species were determined by measuring the relative amounts of free and Pt-bound 5′-GMP at each time point, integrating the ratio of the ^1HNMR peaks at 8.5 ppm to 8.09 ppm.
OxaPt(II) and CisPt(II) are known to bind to guanine (G) and adenine (A) bases in both DNA and RNA. […] Formation of Pt-(5′-GMP)2 adducts were subsequently monitored by ESI-MS (FIG. 4A and FIG. 4B) and by MALDI/TOF MS (data not shown). Differences in the kinetics of adduct formation by various platinum(II) and platinum(IV) species were subsequently studied by ^1H NMR spectroscopy under similar conditions.

With `CCCCCCCCCCCCCCCCCCN1C(=CC=CC=CC=CC2=[N+](CCCCCCCCCCCCCCCCCC)c3ccccc3C2(C)C)C(C)(C)c2ccccc21.[I-]` [DiR, 1,1′-dioctadecyl-3,3,3′,3′-tetramethylindotricarbocyanine iodide] the “initial emission intensity maintained” value ([1]; DiR incorporated within the PCL shell of the nanoparticles, 1 h) was 88% and the fluorescence decrease ([1]; free DiR in THF, 1 h of continuous excitation) was “over 30%”.
In the case of `N.N.[Cl][Pt][Cl]` [CisPt(II), cisplatin], the “time at which Pt-siRNA adducts could be detected” value (BCL-2 siRNA) is reported as at most 30 m.
In the case of `CC[C@H](C)[C@@H]([C@@H](CC(=O)N1CCC[C@H]1[C@H](OC)[C@@H](C)C(=O)N[C@H](C)[C@@H](O)c1ccccc1)OC)N(C)C(=O)[C@@H](NC(=O)[C@@H](NC)C(C)C)C(C)C` [MMAE, monomethyl auristatin E] (H-[NMeV]V[Dil][Dolaproine]-X1), the IC50 [2] is given as 0.2 to 0.6 nM.
In the case of `O=C1[O][Pt]2([NH][C@@H]3CCCC[C@H]3[NH]2)[O]C1=O` [OxaPt(II), Oxaliplatin], the “time at which Pt-siRNA adducts could be detected” value (BCL-2 siRNA) is reported as 1 h, the “DACHPt(5′-GMP)2 adducts as share of the 5′-GMP pool” value (5′-GMP; 30 m incubation) is reported as “approximately 10%” and the “DACHPt(5′-GMP)2 adducts as share of the 5′-GMP pool” value (5′-GMP; 6 h incubation) is reported as over 40%.
